From patent US20240002339A1, “THERAPEUTIC COMPOUNDS AND METHODS” (Regents of the University of Minnesota, priority 2022, published 2024)

Legend:
CDK2 [1] = molecular target: T1, CDK2 (Homo sapiens (Human), UniProt P24941); assay: p-Cl-ANS displacement assay (fluorescent binding assay)
CDK2 [2] = molecular target: T1, CDK2; assay: Isothermal titration calorimetry (ITC); type: binding
GST-tagged CDK2 = GST-tagged CDK2 (Homo sapiens (Human), UniProt P24941); assay: Surface plasmon resonance (SPR); type: binding; conditions: read-out: SPR Kd (SSA)
CDK2/cyclin A = CDK2/cyclin A (Homo sapiens (Human), UniProt P24941); assay: ADP-Glo enzymatic activity assay; type: biochemical

Row | Compound | IC50 (CDK2 [1]) [µM] | Kd (CDK2 [2]) [µM] | other results
1 | O=C(O)c1cc([N+](=O)[O-])ccc1NCCc1c[nH]c2cc(OC(F)(F)F)ccc12 [Example 25] | 0.94 |  | 
2 | O=C(O)c1c(NCCc2c[nH]c3ccccc23)cccc1[N+](=O)[O-] [Example 88, 2-((2-(1H-Indol-3-yl)ethyl)amino)-6-nitrobenzoic acid] | 94 | 79 | 
3 | O=C(O)c1cc(OC(F)(F)F)ccc1NCCc1c[nH]c2cc(Br)ccc12 [Example 63, 2-((2-(6-Bromo-1H-indol-3-yl)ethyl)amino)-5-(trifluoromethoxy)benzoic acid] | < 0.1 |  | 
4 | CC(C)(C)c1ccc(NCCc2c[nH]c3ccccc23)c(C(=O)O)c1 [Example 80, 2-((2-(1H-Indol-3-yl)ethyl)amino)-5-(tert-butyl)benzoic acid] | 21 | > 100 | 
5 | O=C(O)c1cc(C(F)(F)F)ccc1NCCc1c[nH]c2cc(F)ccc12 [Example 34] | 0.17 | 0.21 | 
6 | COc1cc(NCCc2c[nH]c3ccccc23)c(C(=O)O)cc1Br [Example 69, 2-((2-(1H-Indol-3-yl)ethyl)amino)-5-bromo-4-methoxybenzoic acid] | 28 |  | 
7 | O=C(O)c1c(NCCc2c[nH]c3ccccc23)ccc([N+](=O)[O-])c1O [Example 9] | 0.66 | 0.36 | 
8 | COc1cc(NCCc2c[nH]c3ccccc23)c(C(=O)O)cc1OC [Example 71, 2-((2-(1H-Indol-3-yl)ethyl)amino)-4,5-dimethoxybenzoic acid] |  | 10 | 
9 | CCCc1ccc(NCCc2c[nH]c3ccccc23)c(C(=O)O)c1 [Example 81, 2-((2-(1H-Indol-3-yl)ethyl)amino)-5-propylbenzoic acid] | 5.6 | 6.5 | 
10 | O=C(O)c1cc(SC(F)(F)F)ccc1NCCc1c(CO)[nH]c2ccccc12 [Example 64, 2-((2-(2-(Hydroxymethyl)-1H-indol-3-yl)ethyl)amino)-5-((trifluoromethyl)thio)benzoic acid] | 3.8 |  | 
11 | O=Cc1ccc(NCCc2c[nH]c3ccccc23)c(C(=O)O)c1 [Example 91, 2-((2-(1H-Indol-3-yl)ethyl)amino)-5-formylbenzoic acid] | 36 |  | 
12 | O=C(O)c1cc2ccccc2cc1NCCc1c[nH]c2ccccc12 [Example 43] | 2.7 |  | 
13 | Cc1[nH]c2cc(F)ccc2c1CC(C)Nc1ccc(C(F)(F)F)cc1C(=O)O (stereo not shown) [Example 47] | 0.17 |  | 
14 | Nc1c([N+](=O)[O-])ccc(NCCc2c[nH]c3ccccc23)c1C(=O)O [Example 7] | 4.1 | 4.4 | 
15 | O=C(O)c1cc(SC(F)(F)F)ccc1NCCc1c[nH]c2cc(Br)ccc12 [Example 66, 2-((2-(6-Bromo-1H-indol-3-yl)ethyl)amino)-5-((trifluoromethyl)thio)benzoic acid] | 0.17 |  | 
16 | O=C(O)c1cc([N+](=O)[O-])ccc1NCCc1c[nH]c2ccc(F)cc12 [Example 19] | 2.5 |  | 
17 | COc1ccc2c(CCNc3ccc([N+](=O)[O-])cc3C(=O)O)c[nH]c2c1 [Example 23] | 1.5 |  | 
18 | O=C(O)c1cc(C(F)(F)F)ccc1NCCc1c[nH]c2cccc(O)c12 [Example 94, 2-((2-(4-Hydroxy-1H-indol-3-yl)ethyl)amino)-5-(trifluoromethyl)benzoic acid] | 51 |  | 
19 | O=C(O)c1cc(C(F)(F)F)ccc1NCCc1c[nH]c2cc(Cl)ccc12 [Example 35] | 0.092 | 0.031 | Kd (GST-tagged CDK2): 0.024 µM; IC50 (CDK2/cyclin A): 0.088 µM
20 | O=C(O)c1cc(SC(F)(F)F)ccc1NCCc1c[nH]c2ccccc12 [Example 40] | 0.15 |  | 
21 | O=C(O)c1cc([N+](=O)[O-])ccc1NCCc1c[nH]c2cccc(F)c12 [Example 17] | 2.1 |  | 
22 | O=C(O)c1cc(C(F)(F)F)ccc1SCCc1c[nH]c2ccccc12 [Example 46] | 1 |  | 
23 | O=C(O)c1c(NCCc2c[nH]c3ccccc23)cccc1C(F)(F)F [Example 89, 2-((2-(1H-Indol-3-yl)ethyl)amino)-6-(trifluoromethyl)benzoic acid] | 120 |  | 
24 | N#Cc1cccc(NCCc2c[nH]c3ccccc23)c1C(=O)O [Example 90, 2-((2-(1H-Indol-3-yl)ethyl)amino)-6-cyanobenzoic acid] | 37 |  | 
25 | O=C(O)c1cc([N+](=O)[O-])ccc1NCCc1c(C(=O)O)[nH]c2ccccc12 [Example 93, 3-(2-((2-Carboxy-4-nitrophenyl)amino)ethyl)-1H-indole-2-carboxylic acid] | 16 |  | 

Row | Compound | IC50 (CDK2 [1]) [µM] | Kd (CDK2 [2]) [µM] | other results
26 | Cc1cc(NCCc2c[nH]c3ccccc23)c(C(=O)O)cc1[N+](=O)[O-] [Example 6] | 4.2 | 5.7 | 
27 | CCSc1ccc(NCCc2c[nH]c3ccccc23)c(C(=O)O)c1 [Example 85, 2-((2-(1H-Indol-3-yl)ethyl)amino)-5-(ethylthio)benzoic acid] |  | 9.1 | 
28 | Cc1c([N+](=O)[O-])ccc(NCCc2c[nH]c3ccccc23)c1C(=O)O [Example 68, 6-((2-(1H-Indol-3-yl)ethyl)amino)-2-methyl-3-nitrobenzoic] | 4.9 |  | 
29 | CCOc1cc(NCCc2c[nH]c3cc(C#N)ccc23)c(C(=O)O)cc1OCC [Example 62, 2-((2-(6-Cyano-1H-indol-3-yl)ethyl)amino)-4,5-diethoxybenzoic acid] | 0.77 |  | 
30 | Cc1[nH]c2cc(Cl)cc(Cl)c2c1CCNc1ccc(C(F)(F)F)cc1C(=O)O [Example 44] | 0.93 |  | 
31 | O=C(O)c1cc(-c2ccccc2)ccc1NCCc1c[nH]c2ccccc12 [Example 79, 4-((2-(1H-Indol-3-yl)ethyl)amino)-[1,1′-biphenyl]-3-carboxylic acid] | 11 | > 100 | 
32 | N#Cc1ccc2[nH]cc(CCNc3ccc(C(F)(F)F)cc3C(=O)O)c2c1 [Example 29] | 6.2 |  | 
33 | O=C(O)c1cc(C(F)(F)F)ccc1NCCc1c[nH]c2c(O)cccc12 [Example 31] | 3.4 |  | 
34 | O=C(O)c1cc(C(F)(F)F)ccc1NCCc1c(CO)[nH]c2ccccc12 [Example 27] | 0.63 |  | 
35 | FC(F)(F)c1ccc(NCCc2c[nH]c3ccccc23)c(-c2nnn[nH]2)c1 [Example 33] | 6.6 |  | 
36 | CCc1ccc(NCCc2c[nH]c3ccccc23)c(C(=O)O)c1 [Example 77, 2-((2-(1H-Indol-3-yl)ethyl)amino)-5-ethylbenzoic acid] | 18 | 22 | 
37 | Cc1cc(C(=O)O)c(NCCc2c[nH]c3ccccc23)cc1Cl [Example 70, 2-((2-(1H-Indol-3-yl)ethyl)amino)-4-chloro-5-methylbenzoic acid] | 11 | 6.3 | 
38 | O=C(O)c1cc2c(cc1NCCc1c[nH]c3ccccc13)OCCO2 [Example 73, 7-((2-(1H-Indol-3-yl)ethyl)amino)-2,3-dihydrobenzo[b][1,4]dioxine-6-carboxylic acid] |  | 30 | 
39 | O=C(O)c1cc2c(cc1NCCc1c[nH]c3ccccc13)CCCC2 [Example 42] | 6.8 |  | 
40 | O=C(O)c1cc(SC(F)(F)F)ccc1NCCc1c(CO)[nH]c2cc(Br)ccc12 [Example 65, 2-((2-(6-Bromo-2-(hydroxymethyl)-1H-indol-3-yl)ethyl)amino)-5-((trifluoromethyl)thio)benzoic acid] | 0.34 |  | 
41 | FC(F)(F)c1ccc(NCCc2c[nH]c3cc(Br)ccc23)c(-c2nnn[nH]2)c1 [Example 37] | 0.63 |  | 
42 | Cc1[nH]c2c(Cl)c(Cl)ccc2c1CCNc1ccc(C(F)(F)F)cc1C(=O)O [Example 45] | 1.6 |  | 
43 | Cc1ccc(NCCc2c[nH]c3ccccc23)c(C(=O)O)c1 [Example 76, 2-((2-(1H-Indol-3-yl)ethyl)amino)-5-methylbenzoic acid] |  | 36 | 
44 | O=C(O)c1cc(OC(F)(F)F)ccc1NCCc1c[nH]c2cc(F)ccc12 [Example 48] | 0.18 |  | 
45 | O=C(O)c1cc(F)c(F)cc1NCCc1c[nH]c2ccccc12 [Example 41] | 2.4 |  | 
46 | O=C(O)c1cc(C(F)(F)F)ccc1NCCc1c[nH]c2cc(O)ccc12 [Example 95, 2-((2-(6-Hydroxy-1H-indol-3-yl)ethyl)amino)-5-(trifluoromethyl)benzoic acid] | 91 |  | 
47 | N#Cc1ccc2c(CCNc3ccc(SC(F)(F)F)cc3C(=O)O)c[nH]c2c1 [Example 67, 2-((2-(6-Cyano-1H-indol-3-yl)ethyl)amino)-5-((trifluoromethyl)thio)benzoic acid] | < 0.1 |  | 
48 | O=C(O)c1c(O)cccc1NCCc1c[nH]c2ccccc12 [Example 8] | 20 | 5.9 | 
49 | O=C(O)c1cc(C(F)(F)F)ccc1NCCc1c[nH]c2ccc([N+](=O)[O-])cc12 [Example 28] | 0.66 |  | 
50 | O=C(O)c1cc([N+](=O)[O-])ccc1NCCc1c[nH]c2c(F)cccc12 [Example 20] | 6 |  | 
